Values quoted from earlier work, collected in patent US11344529B2, “Compositions and methods for the treatment of metabolic conditions” (Reven IP HoldCo LLC, priority 2017, dated 2022).

Key:
[1] = more than 500 postmenopausal women

For `CC(C)=CCC/C(C)=C/CC/C(C)=C/CC/C(C)=C/CC1=C(C)C(=O)c2ccccc2C1=O` [Vitamin K2], the “association of intake with coronary calcification” value [1] is given as “associated with the trend toward decreasing coronary calcification”, the “total cholesterol, lipid peroxidation, aortic ester cholesterol deposition, plasma factor X activity” value (compared to the control group) is given as “reduce total cholesterol levels, lipid peroxidation, ester cholesterol deposition in the aorta and factor X activity in plasma” and the “atherosclerotic plaque progression in the aorta and pulmonary arteries” value (rabbits, 1-10 mg/kg daily for 10 weeks) is given as “inhibited the atherosclerotic plaque progression”.
